Test results from patent publication US5726167A, “Inhibition of phosphatidylinositol 3-kinase with viridin, demethoxyviridin, viridiol, demethoxyviridiol, virone, wortmannolone, and analogs thereof” (Eli Lilly and Company, priority 1997, dated 1998).

Target: bovine brain purified PI 3-kinase
Test: Assay of purified PI 3-kinase activity
Type: biochemical
Settings: purified bovine brain PI 3-kinase, phosphatidylinositol substrate, 20 μM ATP
Description: In another, preferred, method, PI 3-kinase was prepared from bovine brain. Two bovine brains (wet weight about 900 g) were obtained from a local slaughterhouse within minutes of slaughter, packed on ice, and homogenized within one hour. Brains were trimmed of excess fat and blood vessels and then homogenized using a Tekmar Tissuemizer (Cincinnati, Ohio) at 4° C. in 20 mM of Tris(pH 8.3) containing 250 mM of sucrose, 6 mM of β-mercaptoethanol, 1 μg/ml of leupeptin, 1 μg/ml of pepstatin A, 0.4 mM of PMSF, and 1 mM of MgCl2.
Following centrifugation for 60 minutes at 10,000×g, the pH of the supernatant (about 1200 mL) was lowered to 5.75 using dropwise addition of 1M acetic acid at 4° C. After stirring for an additional 15 minutes at 4° C., the solution was centrifuged for 60 minutes at 13,500×g. The supernatant was discarded. Pellets were resuspended in Buffer A (20 mM of Tris, pH 8.3, containing 6 mM of β-mercaptoethanol, 0.1 mM of ethylene glycol-bis(β-aminoethyl ether) N,N,N',N'-tetraacetic acid (EGTA), 1 μg/mL of leupeptin, 1 μg/mL of pepstatin A, and 1 mM of MgCl2), and loaded onto a Fast Flow Q Sepharose column (300 ml) at a flow rate of 5 mL/minute at 4° C. […]
PI 3-kinase activity was measured as previously described by Matter, W. F., et al., Biochemical and Biophysical Research Communications, 186: 624-631 (1992). […]

For `COC1C(=O)c2coc3c2[C@@](C)(c2ccc4c(c2C3=O)CCC4=O)[C@@H]1O` (some centres unmarked) [viridin], the “one-half maximal inhibition, IC50” value was 0.85 ng/mL and the IC50 (molar value in brackets, read-out: one-half maximal inhibition, IC50) was 2.4 nM.
